Assays:
Assay type in all cases: in vivo
Settings in all cases: 250 g/ha, evaluated after 13 days, five-point scale
[1] = system: Amaranthus palmeri (AMAPA); assay: Post-emergence herbicide glasshouse test
In short: (§1)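 Glasshouse spray test at 250 g/ha, pre- or post-emergence (1 or 8 days after sowing). Percent injury scored 1–5 after 13 days.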

[2] = system: Amaranthus retoflexus (AMARE); assay: Post-emergence herbicide glasshouse test
In short: as §1

[3] = system: Echinochloa crus-galli (ECHCG); assay: Post-emergence herbicide glasshouse test
In short: as §1

[4] = system: Ipomoea hederacea (IPOHE); assay: Post-emergence herbicide glasshouse test
In short: as §1

[5] = system: Setaria faberi (SETFA); assay: Post-emergence herbicide glasshouse test
In short: as §1

[6] = system: Amaranthus palmeri (AMAPA); assay: Pre-emergence herbicide glasshouse test
In short: as §1

[7] = system: Amaranthus retoflexus (AMARE); assay: Pre-emergence herbicide glasshouse test
In short: as §1

[8] = system: Echinochloa crus-galli (ECHCG); assay: Pre-emergence herbicide glasshouse test
In short: as §1

[9] = system: Ipomoea hederacea (IPOHE); assay: Pre-emergence herbicide glasshouse test
In short: as §1

[10] = system: Setaria faberi (SETFA); assay: Pre-emergence herbicide glasshouse test
In short: as §1

Structure (SMILES)	percentage damage caused to the plant, AMAPA [1]	percentage damage caused to the plant, AMARE [2]	percentage damage caused to the plant, ECHCG [3]	percentage damage caused to the plant, IPOHE [4]	percentage damage caused to the plant, SETFA [5]	percentage damage caused to the plant, AMAPA [6]	percentage damage caused to the plant, AMARE [7]	percentage damage caused to the plant, ECHCG [8]	percentage damage caused to the plant, IPOHE [9]	percentage damage caused to the plant, SETFA [10]
FC(F)(F)c1nc(CCC2CCOC2)c2c(Oc3ncc(Cl)cn3)cccc2n1 (centres unmarked) [Compound 1.031]	4 (4=61-80%)	5 (5=81-100%)	5 (5=81-100%)	5 (5=81-100%)	5 (5=81-100%)	5 (5=81-100%)	5 (5=81-100%)	5 (5=81-100%)	5 (5=81-100%)	5 (5=81-100%)
FC(F)(F)c1nc(CCC2CC2)c2c(Oc3ncc(Cl)cn3)cccc2n1 [Compound 1.032]	4 (4=61-80%)	5 (5=81-100%)	5 (5=81-100%)	4 (4=61-80%)	5 (5=81-100%)	5 (5=81-100%)	5 (5=81-100%)	5 (5=81-100%)	1 (1=0-20%)	5 (5=81-100%)
FC(F)(F)c1nc(CCC2COC2)c2c(Oc3ncc(Cl)cn3)cccc2n1 [Compound 1.033]	2 (2=21-40%)	4 (4=61-80%)	5 (5=81-100%)	5 (5=81-100%)	5 (5=81-100%)	5 (5=81-100%)	4 (4=61-80%)	5 (5=81-100%)	5 (5=81-100%)	5 (5=81-100%)
CC(=O)N1CCC(CCc2nc(C(F)(F)F)nc3cccc(Oc4ncc(Cl)cn4)c23)CC1 [Compound 1.034]	4 (4=61-80%)	5 (5=81-100%)	4 (4=61-80%)	2 (2=21-40%)	5 (5=81-100%)	3 (3=41-60%)	2 (2=21-40%)	2 (2=21-40%)	1 (1=0-20%)	4 (4=61-80%)
FC(F)c1cc(-c2nc(C(F)(F)F)nc3cccc(Oc4ncc(Cl)cn4)c23)on1 [Compound 1.035, 5-[5-(5-chloropyrimidin-2-yl)oxy-2-(trifluoromethyl)quinazolin-4-yl]-3-(difluoromethyl)isoxazole]	4 (4=61-80%)	4 (4=61-80%)	1 (1=0-20%)	1 (1=0-20%)	2 (2=21-40%)	5 (5=81-100%)	5 (5=81-100%)	2 (2=21-40%)	1 (1=0-20%)	3 (3=41-60%)
O=C(c1ccncc1)c1nc(C(F)(F)F)nc2cccc(Oc3ncc(Cl)cn3)c12 [Compound 1.036]	3 (3=41-60%)	3 (3=41-60%)	1 (1=0-20%)	1 (1=0-20%)	1 (1=0-20%)	4 (4=61-80%)	3 (3=41-60%)	3 (3=41-60%)	1 (1=0-20%)	3 (3=41-60%)
OCC(O)CCc1nc(C(F)(F)F)nc2cccc(Oc3ncc(Cl)cn3)c12 (centres unmarked) [Compound 1.037, 4-[5-(5-chloropyrimidin-2-yl)oxy-2-(trifluoromethyl)quinazolin-4-yl]butane-1,2-diol]	3 (3=41-60%)	3 (3=41-60%)	1 (1=0-20%)	1 (1=0-20%)	1 (1=0-20%)	1 (1=0-20%)	1 (1=0-20%)	1 (1=0-20%)	1 (1=0-20%)	1 (1=0-20%)
O=CCCc1nc(C(F)(F)F)nc2cccc(Oc3ncc(Cl)cn3)c12 [Compound 1.038, 3-[5-(5-chloropyrimidin-2-yl)oxy-2-(trifluoromethyl)quinazolin-4-yl]propanal]	3 (3=41-60%)	4 (4=61-80%)	1 (1=0-20%)	3 (3=41-60%)	1 (1=0-20%)	1 (1=0-20%)	2 (2=21-40%)	1 (1=0-20%)	1 (1=0-20%)	1 (1=0-20%)
OCCCc1nc(C(F)(F)F)nc2cccc(Oc3ncc(Cl)cn3)c12 [Compound 1.039, 3-[5-(5-chloropyrimidin-2-yl)oxy-2-(trifluoromethyl)quinazolin-4-yl]propan-1-ol]	3 (3=41-60%)	4 (4=61-80%)	1 (1=0-20%)	3 (3=41-60%)	1 (1=0-20%)	2 (2=21-40%)	3 (3=41-60%)	2 (2=21-40%)	1 (1=0-20%)	2 (2=21-40%)
FC(F)(F)c1nc(C2CC2)c2c(Oc3ncc(Cl)cn3)cccc2n1 [Compound 1.041, 5-(5-chloropyrimidin-2-yl)oxy-4-cyclopropyl-2-(trifluoromethyl)quinazoline]	5 (5=81-100%)	5 (5=81-100%)	3 (3=41-60%)	2 (2=21-40%)	5 (5=81-100%)	5 (5=81-100%)	2 (2=21-40%)	3 (3=41-60%)	1 (1=0-20%)	5 (5=81-100%)
FC(F)(F)c1nc(CCC2CCCCC2)c2c(Oc3ncc(Cl)cn3)cccc2n1 [Compound 1.045]	4 (4=61-80%)	4 (4=61-80%)	2 (2=21-40%)	3 (3=41-60%)	2 (2=21-40%)	5 (5=81-100%)	3 (3=41-60%)	4 (4=61-80%)	1 (1=0-20%)	4 (4=61-80%)
CCO/N=C\CCc1nc(C(F)(F)F)nc2cccc(Oc3ncc(Cl)cn3)c12 [Compound 1.047]	4 (4=61-80%)	5 (5=81-100%)	5 (5=81-100%)	5 (5=81-100%)	5 (5=81-100%)	4 (4=61-80%)	4 (4=61-80%)	5 (5=81-100%)	2 (2=21-40%)	5 (5=81-100%)
FC(F)(F)c1nc(CBr)c2c(Oc3ncc(Cl)cn3)cccc2n1 [Compound 1.048, 4-(bromomethyl)-5-(5-chloropyrimidin-2-yl)oxy-2-(trifluoromethyl)quinazoline]	4 (4=61-80%)	5 (5=81-100%)	2 (2=21-40%)	2 (2=21-40%)	4 (4=61-80%)	5 (5=81-100%)	5 (5=81-100%)	3 (3=41-60%)	1 (1=0-20%)	4 (4=61-80%)
Cc1ccc(Oc2ncc(Cl)cn2)c2c(CCC3CC3)nc(C(F)(F)F)nc12 [Compound 1.059]	2 (2=21-40%)	2 (2=21-40%)	1 (1=0-20%)	3 (3=41-60%)	1 (1=0-20%)	1 (1=0-20%)	1 (1=0-20%)	1 (1=0-20%)	1 (1=0-20%)	1 (1=0-20%)
